Experimental data: patent US9393232B2 (BeiGene, Ltd., priority 2013, dated 2016)
Read-outs that look alike come from different tables or passages of the source.

Experiments:
[1] = target: Recombinant human BRD4(1-477) (Homo sapiens (Human), UniProt O60885); assay: BRD4 TR-FRET biochemical IC50 assay; assay type: binding; details: TR-FRET, tetra-acetylated histone peptide; read-out: BRD4 IC50
MV4-11 = MV4-11 (3 Days) EC50; assay type: cell-based

Row | Structure (SMILES) | IC50 [1] | EC50 (MV4-11; Homo sapiens, 72 h) | EC50 (MV4-11; Homo sapiens, MV4-11, 72 h) | EC50 (MV4-11)
1 | Cc1noc(C)c1-c1ccc2c(c1)C(O)(c1cccc(Cl)c1)C(=O)N2 (centres unmarked) [Compound 1.3, 3-(3-chlorophenyl)-5-(3,5-dimethylisoxazol-4-yl)-3-hydroxyindolin-2-one] | 380 nM | 369 nM |  | 
2 | Cc1noc(C)c1-c1ccc2c(c1)C(O)(c1ccc(F)cc1)C(=O)N2 (centres unmarked) [Compound 1.4, 5-(3,5-dimethylisoxazol-4-yl)-3-(4-fluorophenyl)-3-hydroxyindolin-2-one] | 100 nM | 181 nM |  | 
3 | Cc1ccc(C2(O)C(=O)Nc3ccc(-c4c(C)noc4C)cc32)cc1 (centres unmarked) [Compound 1.5, 5-(3,5-dimethylisoxazol-4-yl)-3-hydroxy-3-p-tolylindolin-2-one] | 180 nM | 285 nM |  | 
4 | Cc1cc(C2(O)C(=O)Nc3ccc(-c4c(C)noc4C)cc32)ccc1F (centres unmarked) [Compound 1.6, 5-(3,5-dimethylisoxazol-4-yl)-3-(4-fluoro-3-methylphenyl)-3-hydroxyindolin-2-one] | 380 nM | 594 nM |  | 
5 | Cc1ccccc1C1(O)C(=O)Nc2ccc(-c3c(C)noc3C)cc21 (centres unmarked) [Compound 1.7, 5-(3,5-dimethylisoxazol-4-yl)-3-hydroxy-3-o-tolylindolin-2-one] | 570 nM | 1500 nM |  | 
6 | Cc1noc(C)c1-c1ccc2c(c1)C(O)(c1ccc(F)c(F)c1)C(=O)N2 (centres unmarked) [Compound 1.8, 3-(3,4-difluorophenyl)-5-(3,5-dimethylisoxazol-4-yl)-3-hydroxyindolin-2-one] | 200 nM | 425 nM |  | 
7 | COc1ccc(C2(O)C(=O)Nc3ccc(-c4c(C)noc4C)cc32)cc1 (centres unmarked) [Compound 1.9, 5-(3,5-dimethylisoxazol-4-yl)-3-hydroxy-3-(4-methoxyphenyl)indolin-2-one] | 410 nM | 536 nM |  | 
8 | Cc1ccsc1C1(O)C(=O)Nc2ccc(-c3c(C)noc3C)cc21 (centres unmarked) [Compound 1.13, 5-(3,5-dimethylisoxazol-4-yl)-3-hydroxy-3-(3-methylthiophen-2-yl)indolin-2-one] | 560 nM | 746 nM |  | 
9 | Cc1noc(C)c1-c1ccc2c(c1)C(O)(C1CCCCC1)C(=O)N2 (centres unmarked) [Compound 1.15, 3-cyclohexyl-5-(3,5-dimethylisoxazol-4-yl)-3-hydroxyindolin-2-one] | 77 nM | 183 nM |  | 
10 | Cc1noc(C)c1-c1ccc2c(c1)C(O)(C1CCCC1)C(=O)N2 (centres unmarked) [Compound 1.17, 3-cyclopentyl-5-(3,5-dimethylisoxazol-4-yl)-3-hydroxyindolin-2-one] | 270 nM | 671 nM |  | 
11 | Cc1noc(C)c1-c1ccc2c(c1)C(O)(C1CCC1)C(=O)N2 (centres unmarked) [Compound 1.18, 3-cyclobutyl-5-(3,5-dimethylisoxazol-4-yl)-3-hydroxyindolin-2-one] | 510 nM | 1140 nM |  | 
12 | Cc1noc(C)c1-c1ccc2c(c1)C(O)(C1CC1)C(=O)N2 (centres unmarked) [Compound 1.19, 3-cyclopropyl-5-(3,5-dimethylisoxazol-4-yl)-3-hydroxyindolin-2-one] | 850 nM | 1960 nM |  | 
13 | CC#CC1(O)C(=O)Nc2ccc(-c3c(C)noc3C)cc21 (centres unmarked) [Compound 1.22, 5-(3,5-dimethylisoxazol-4-yl)-3-hydroxy-3-(prop-1-ynyl)indolin-2-one] | 220 nM |  | 478 nM | 
14 | Cc1noc(C)c1-c1ccc2c(c1)C(Cl)(c1ccccc1)C(=O)N2 (centres unmarked) [Compound 1.31, 3-Chloro-5-(3,5-dimethylisoxazol-4-yl)-3-phenylindolin-2-one] | 58 nM |  | 152 nM | 
15 | Cc1noc(C)c1-c1ccc2c(c1)C(OCCO)(c1ccccc1)C(=O)N2 (centres unmarked) [Compound 1.32, 5-(3,5-Dimethylisoxazol-4-yl)-3-(2-hydroxyethoxy)-3-phenylindolin-2-one] | 79 nM |  | 82 nM | 
16 | Cc1noc(C)c1-c1ccc2c(c1)C(NCCO)(c1ccccc1)C(=O)N2 (centres unmarked) [Compound 2.1, 5-(3,5-dimethylisoxazol-4-yl)-3-(2-hydroxyethylamino)-3-phenylindolin-2-one] | 70 nM |  | 78 nM | 
17 | Cc1noc(C)c1-c1ccc2c(c1)C(c1ccccc1)(N1CCCCC1)C(=O)N2 (centres unmarked) [Compound 2.3, 5-(3,5-dimethylisoxazol-4-yl)-3-phenyl-3-(piperidin-1-yl)indolin-2-one] | 84 nM |  | 542 nM | 
18 | Cc1noc(C)c1-c1ccc2c(c1)C(c1ccccc1)(N1CCC(O)CC1)C(=O)N2 (centres unmarked) [Compound 2.4, 5-(3,5-dimethylisoxazol-4-yl)-3-(4-hydroxypiperidin-1-yl)-3-phenylindolin-2-one] | 36 nM |  | 76 nM | 
19 | Cc1noc(C)c1-c1ccc2c(c1)C(c1ccccc1)(N1CCN(C)CC1)C(=O)N2 (centres unmarked) [Compound 2.5, 5-(3,5-dimethylisoxazol-4-yl)-3-(4-methylpiperazin-1-yl)-3-phenylindolin-2-one] | 110 nM |  | 420 nM | 
20 | Cc1noc(C)c1-c1ccc2c(c1)C(c1ccccc1)(N1CCOCC1)C(=O)N2 (centres unmarked) [Compound 2.6, 5-(3,5-dimethylisoxazol-4-yl)-3-morpholino-3-phenylindolin-2-one] | 63 nM |  | 179 nM | 

Row | Structure (SMILES) | IC50 [1] | EC50 (MV4-11; Homo sapiens, 72 h) | EC50 (MV4-11; Homo sapiens, MV4-11, 72 h) | EC50 (MV4-11)
21 | Cc1noc(C)c1-c1ccc2c(c1)C(NCCO)(C1CCCCC1)C(=O)N2 (centres unmarked) [Compound 2.18, 3-cyclohexyl-5-(3,5-dimethylisoxazol-4-yl)-3-(2-hydroxyethylamino)indolin-2-one] | 85 nM |  | 204 nM | 
22 | Cc1noc(C)c1-c1ccc2c(c1)C(NC[C@H](C)O)(C1CCCCC1)C(=O)N2 (stereo partly drawn) [Compound 2.21, 3-cyclohexyl-5-(3,5-dimethylisoxazol-4-yl)-3-((S)-2-hydroxypropylamino)indolin-2-one] | 88 nM |  |  | 270 nM
23 | Cc1noc(C)c1-c1ccc2c(c1)C(N[C@@H](C)CO)(C1CCCCC1)C(=O)N2 (stereo partly drawn) [Compound 2.23, 3-cyclohexyl-5-(3,5-dimethylisoxazol-4-yl)-3-((S)-1-hydroxypropan-2-ylamino)indolin-2-one] | 160 nM |  | 371 nM | 
24 | Cc1noc(C)c1-c1ccc2c(c1)C(N[C@H](C)CO)(C1CCCCC1)C(=O)N2 (stereo partly drawn) [Compound 2.24, 3-cyclohexyl-5-(3,5-dimethylisoxazol-4-yl)-3-((R)-1-hydroxypropan-2-ylamino)indolin-2-one] | 75 nM |  | 349 nM | 
25 | Cc1noc(C)c1-c1ccc2c(c1)C(NC(C)C)(C1CCCCC1)C(=O)N2 (centres unmarked) [Compound 2.27, 3-cyclohexyl-5-(3,5-dimethylisoxazol-4-yl)-3-(isopropylamino)indolin-2-one] | 85 nM |  | 833 nM | 
26 | Cc1noc(C)c1-c1ccc2c(c1)C(NCCN(C)C)(C1CCCCC1)C(=O)N2 (centres unmarked) [Compound 2.28, 3-cyclohexyl-3-(2-(dimethylamino)ethylamino)-5-(3,5-dimethylisoxazol-4-yl)indolin-2-one] | 140 nM |  | 539 nM | 
27 | Cc1noc(C)c1-c1ccc2c(c1)C(C1CCCCC1)(N1CCOCC1)C(=O)N2 (centres unmarked) [Compound 2.29] | 94 nM |  | 314 nM | 
28 | Cc1noc(C)c1-c1ccc2c(c1)C(C1CCCC1)(N1CCOCC1)C(=O)N2 (centres unmarked) [Compound 2.34, 3-cyclopentyl-5-(3,5-dimethylisoxazol-4-yl)-3-morpholinoindolin-2-one] | 120 nM |  | 438 nM | 
29 | Cc1noc(C)c1-c1ccc2c(c1)C(NCCO)(C1CCCC1)C(=O)N2 (centres unmarked) [Compound 2.35, 3-cyclopentyl-5-(3,5-dimethylisoxazol-4-yl)-3-(2-hydroxyethylamino)indolin-2-one] | 130 nM |  | 324 nM | 
30 | Cc1noc(C)c1-c1ccc2c(c1)C(c1ccccc1)(N1CCNCC1)C(=O)N2 (centres unmarked) [Compound 2.38, 5-(3,5-dimethylisoxazol-4-yl)-3-phenyl-3-(piperazin-1-yl)indolin-2-one] | 120 nM |  | 504 nM | 
31 | Cc1noc(C)c1-c1ccc2c(c1)C(C1CCCCC1)(N1CCNCC1)C(=O)N2 (centres unmarked) [Compound 2.39] | 76 nM |  | 365 nM | 
32 | Cc1noc(C)c1-c1ccc2c(c1)C(C1CCCC1)(N1CCNCC1)C(=O)N2 (centres unmarked) [Compound 2.40, 3-Cyclopentyl-5-(3,5-dimethylisoxazol-4-yl)-3-(piperazin-1-yl)indolin-2-one] | 150 nM |  | 555 nM | 
33 | Cc1noc(C)c1-c1ccc2c(c1)C(c1ccccc1)(N1CC(O)C1)C(=O)N2 (centres unmarked) [Compound 2.58, 5-(3,5-Dimethylisoxazol-4-yl)-3-(3-hydroxyazetidin-1-yl)-3-phenylindolin-2-one] | 78 nM |  | 258 nM | 
34 | Cc1noc(C)c1-c1ccc2c(c1)C(c1ccccc1)C(=O)N2 (centres unmarked) [Compound 3.1, 5-(3,5-Dimethylisoxazol-4-yl)-3-phenylindolin-2-one] | 110 nM |  | 382 nM | 
35 | Cc1noc(C)c1-c1ccc2c(c1)C(CCCO)(c1ccccc1)C(=O)N2 (centres unmarked) [Compound 3.2, 5-(3,5-dimethylisoxazol-4-yl)-3-(3-hydroxypropyl)-3-phenylindolin-2-one] | 52 nM |  | 125 nM | 
36 | CCOC(=O)CC1(c2ccccc2)C(=O)Nc2ccc(-c3c(C)noc3C)cc21 (centres unmarked) [Compound 3.3, Ethyl 2-(5-(3,5-dimethylisoxazol-4-yl)-2-oxo-3-phenylindolin-3-yl)acetate] | 440 nM |  | 787 nM | 
37 | Cc1noc(C)c1-c1ccc2c(c1)C(CCO)(c1ccccc1)C(=O)N2 (centres unmarked) [Compound 3.5, 5-(3,5-Dimethylisoxazol-4-yl)-3-(2-hydroxyethyl)-3-phenylindolin-2-one] | 120 nM |  | 140 nM | 
38 | Cc1noc(C)c1-c1ccc2c(c1)C(CCCN1CCOCC1)(c1ccccc1)C(=O)N2 (centres unmarked) [Compound 3.6, 5-(3,5-dimethylisoxazol-4-yl)-3-(3-morpholinopropyl)-3-phenylindolin-2-one] | 100 nM |  | 270 nM | 
39 | Cc1noc(C)c1-c1ccc2c(c1)C(CCCN1CCN(C)CC1)(c1ccccc1)C(=O)N2 (centres unmarked) [Compound 3.7, 5-(3,5-Dimethylisoxazol-4-yl)-3-(3-(4-methylpiperazin-1-yl)propyl)-3-phenylindolin-2-one] | 53 nM |  | 116 nM | 
40 | Cc1noc(C)c1-c1ccc2c(c1)C(CCCN1CCNCC1)(c1ccccc1)C(=O)N2 (centres unmarked) [Compound 3.8, 5-(3,5-Dimethylisoxazol-4-yl)-3-phenyl-3-(3-(piperazin-1-yl)propyl)indolin-2-one] | 51 nM |  | 62 nM | 
